Key:
[1] = target: T1, E. coli TEM-1 β-lactamase (Escherichia coli, UniProt P62593); experiment: Drug screening: E166Cf fluorescence in presence of bacterial β-lactamase culture; assay type: biochemical; design: key: −: Decline in fluorescence signal (presence of beta-lactam hydrolysis); +: No decline in fluorescence signal (absence of beta-lactam hydrolysis); conditions: E. coli TEM-1 culture, undiluted; antibiotic 1.0×10^−4 M; E166Cf 1.2×10^−7 M
T1 construct: made in house; host or cells: E. coli BL21(DE3); whole overnight culture used undiluted, not purified
T1 sequence (P62593 24-286 limits assumed): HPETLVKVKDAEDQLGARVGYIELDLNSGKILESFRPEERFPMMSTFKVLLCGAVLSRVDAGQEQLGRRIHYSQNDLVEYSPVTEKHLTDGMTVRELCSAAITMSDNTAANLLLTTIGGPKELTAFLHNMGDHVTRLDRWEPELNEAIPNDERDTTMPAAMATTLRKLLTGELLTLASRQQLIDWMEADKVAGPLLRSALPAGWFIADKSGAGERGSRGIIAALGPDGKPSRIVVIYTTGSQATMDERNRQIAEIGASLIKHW
Procedure: (§1) The use of the E166Cf enzyme in screening bacterial β-lactamases against various β-lactam antibiotics was investigated. The principle of our method is that when both E166Cf and bacterial β-lactamase are incubated with ‘β-lactamase-unstable’ antibiotics, the fluorescence of the E166Cf enzyme will be suppressed because of the greater catalytic efficiency of the bacterial enzyme. In contrast, when bacterial β-lactamases are screened against ‘β-lactamase-resistant’ antibiotics, the fluorescence of the E166Cf enzyme will be enhanced because of the poor hydrolytic activity of the bacterial enzyme. Thus, any β-lactam antibiotic that causes the labeled enzyme to increase its fluorescence intensity in the presence of bacterial β-lactamases can be used in clinical treatments.
The TEM-1 β-lactamase was expressed in E. coli. BL21(DE3). Preparation of the TEM-1 β-lactamase was performed as follows. A bacterial strain was streaked on an agar plate containing 100 μg/ml ampicillin, and the plate was incubated at 37° C. for 24 h. A single bacterial colony from the plate was inoculated into 100 ml of sterilized LB broth (28 g/l) which was then incubated at 37° C. with shaking at 280 rpm overnight. After overnight incubation, the bacterial culture was harvested and stored at −20° C.
(§2) Fluorescence measurements of the E166Cf enzyme in the presence of bacterial cultures and β-lactam antibiotics were performed on a FLUOstar microplate reader (BMG Labtechnologies) equipped with two sample injectors. Excitation and emission filters of 485 and 520 nm respectively were used. For B. cereus penPC β-lactamase, B. licheniformis penP β-lactamase and B. cereus β-lactamase II, the labeled enzymes were mixed with the bacterial cultures, and the mixtures were made up to 300 μl with 50 mM phosphate buffer (pH 7.0) in a 96-well microtiter plate (Corning Costar). For the purpose of comparison, B. subtilis cultures, which produced no β-lactamase, were set up as negative controls. For E. coli. TEM-1 β-lactamase, the labeled enzymes were mixed with the bacterial cultures without dilution. E. coli. cultures, which produced no β-lactamase, were set up as negative controls for comparison. The antibiotics were then added to the bacterial samples by the injectors.
(§3) The results from the time-resolved fluorescence measurements of the labeled enzyme (1.2×10^−7 M) in the presence of various bacterial cultures and β-lactam antibiotics (1.0×10^−4 M) are shown in FIGS. 23 to 26.

[2] = target: T2, E166Cf (fluorescein-labeled E166C mutant of β-lactamase I) (Bacillus cereus, UniProt P00809, E185C); experiment: Spectrophotometric substrate hydrolysis, steady-state kinetics; assay type: biochemical; conditions: E166Cf; 50 mM potassium phosphate buffer pH 7.0, 20° C.
T2 construct: made in house; host or cells: B. subtilis 1A304 (φ105MU331); then labelled chemically
T2 sequence (P00809 28-306 E185C): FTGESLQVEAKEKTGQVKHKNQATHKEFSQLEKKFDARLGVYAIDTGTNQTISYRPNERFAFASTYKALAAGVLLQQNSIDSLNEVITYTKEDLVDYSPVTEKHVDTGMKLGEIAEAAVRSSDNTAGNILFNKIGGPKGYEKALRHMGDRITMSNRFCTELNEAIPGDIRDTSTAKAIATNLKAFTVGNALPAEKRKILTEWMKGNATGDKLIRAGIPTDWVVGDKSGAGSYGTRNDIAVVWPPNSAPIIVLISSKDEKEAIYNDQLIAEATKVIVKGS
Procedure: (§4) The hydrolytic activities of the wild-type β-lactamase I, E166C and E166Cf mutants towards penicillin G, penicillin V and ampicillin (Sigma) were monitored by the spectrophotometric method. The spectrophotometric measurements were performed on a Perkin Elmer Lambda Bio20 UV/Vis spectrometer. Substrate hydrolysis was monitored at a fixed wavelength: 235 nm for ampicillin, 232 nm for penicillin G and penicillin V. The initial rate of substrate hydrolysis occurring within 5 min was determined in duplicate at each of 6 different substrate concentrations in 50 mM potassium phosphate buffer (pH 7.0) at 20° C. The initial rates determined were then treated as described in Reference 5 to calculate the Michaelis constants (Km) and turnover numbers (kcat) using non-linear regression analysis (equation 1):
(§5) [formula] where v is the initial rate of substrate hydrolysis, Vmax the maximum rate of reaction, [S] the initial substrate concentration, Km the Michaelis constant and kcat=Vmax/[Enzyme].
(§6) The measured steady-state kinetic parameters for hydrolysis of penicillin G, penicillin V and ampicillin by the wild-type β-lactamase I, E166C and E166Cf mutants are summarized in Table 1.
At high substrate concentration (1.0×10^−5 and 1.0×10^−4 M), the penicillin substrates rapidly occupy the active sites to form the ES complexes, thus switching on the fluorescence of the fluorescein labels instantaneously. […] This can be verified by the fact that the ‘plateau time’ (8 and 22 min for 1.0×10^−5 and 1.0×10^−4 M penicillin G respectively) is consistent with the ‘substrate hydrolysis time’ determined by spectrophotometric assays (7 and 20 min for 1.0×10^−5 and 1.0×10^−4 M penicillin G respectively). When most of the penicillin substrates have been hydrolyzed to carboxylic acids, the fluorescence signal of the labeled enzyme will decline subsequently.

[3] = target: T3, E166Cf enzyme (Bacillus cereus, UniProt P00809, E185C); experiment: Detection of β-lactam antibiotics in milk by E166Cf fluorescence; conditions: untreated milk; E166Cf 1.2×10^−7 M
T3 construct: made in house; host or cells: B. subtilis 1A304 (φ105MU331); then labelled chemically
T3 sequence (P00809 28-306 E185C): T2 sequence (P00809 28-306 E185C)
Procedure: Fluorescence measurements of the E166Cf enzyme in milk in the presence of penicillin G and ampicillin were performed on a FLUOstar microplate reader (BMG Labtechnologies) equipped with two sample injectors. Excitation and emission filters of 485 and 520 nm respectively were used. Milk (pasteurized and homogenized, Nestle Dairy Farm) was purchased at a local supermarket. The labeled enzyme was mixed with the milk sample in a 96-well microtiter plate (Corning Costar). The antibiotics were then added to the mixtures by the injectors.
FIGS. 21 and 22 show the results from the time-resolved fluorescence measurements of the labeled enzyme (1.2×10^−7 M) in untreated milk in the presence of various concentrations of penicillin G and ampicillin respectively.

[4] = target: T4, B. cereus penPC β-lactamase (Bacillus cereus, UniProt P00809); experiment: Drug screening: E166Cf fluorescence in presence of bacterial β-lactamase culture; assay type: biochemical; design: key: −: Decline in fluorescence signal (presence of beta-lactam hydrolysis); +: No decline in fluorescence signal (absence of beta-lactam hydrolysis); conditions: antibiotic 1.0×10^−4 M, E166Cf 1.2×10^−7 M
T4 construct: made in house; host or cells: B. subtilis 1A304 (φ105MU331); whole culture used, not purified
T4 sequence (P00809 28-306): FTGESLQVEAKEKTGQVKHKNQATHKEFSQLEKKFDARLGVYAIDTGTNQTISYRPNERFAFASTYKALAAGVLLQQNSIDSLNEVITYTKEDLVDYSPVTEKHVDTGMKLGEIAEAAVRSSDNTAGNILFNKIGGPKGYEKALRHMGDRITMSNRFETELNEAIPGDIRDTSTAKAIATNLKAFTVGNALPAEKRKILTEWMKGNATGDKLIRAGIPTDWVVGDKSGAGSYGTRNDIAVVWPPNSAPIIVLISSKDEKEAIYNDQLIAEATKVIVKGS
Procedure: as §1
(§7) The β-lactamase II, penPC β-lactamase and penP β-lactamase were expressed in B. subtilis 1A304 (φ105MU331). These enzymes were prepared according to the procedures described previously (Reference 7: Thomwell, S. J. East, A. K., Errington, J. An efficient expression and secretion system based on Bacillus subtilis phage phi 105 and its uses for the production for B. cereus β-lactamase I. (1993) Gene 133, 47-53) with slight modifications. A bacterial strain was streaked on an agar plate containing 5 μg/ml chloramphenicol, and the plate was incubated at 37° C. for 24 h. A single bacterial colony from the agar plate was inoculated into 100 ml of sterilized BHY medium (37 g/l brain heart infusion and 5 g/l yeast extract) which was then incubated at 37° C. with shaking at 300 rpm overnight. About 7 ml of overnight inoculum was added to a baffled conical flask containing 100 ml of sterilized BHY medium. The inoculated medium was incubated at 37° C. with shaking at 300 rpm. When the optical density of the bacterial culture at 600 nm reached 3.5 to 4.0, the bacterial culture was heated in a water bath at 51° C. for 5 min. Afterwards, the bacterial culture was incubated at 37° C. with shaking at 300 rpm for a further 6 h. The bacterial culture was then harvested and stored at −20° C.
as §2, §3

[5] = target: T5, B. cereus β-lactamase II (Bacillus cereus, UniProt P04190); experiment: as above; assay type: biochemical; design: key: −: Decline in fluorescence signal (presence of beta-lactam hydrolysis); +: No decline in fluorescence signal (absence of beta-lactam hydrolysis); conditions: antibiotic 1.0×10^−4 M, E166Cf 1.2×10^−7 M
T5 construct: made in house; host or cells: B. subtilis 1A304 (φ105MU331); whole culture used, not purified
T5 sequence (P04190 31-257): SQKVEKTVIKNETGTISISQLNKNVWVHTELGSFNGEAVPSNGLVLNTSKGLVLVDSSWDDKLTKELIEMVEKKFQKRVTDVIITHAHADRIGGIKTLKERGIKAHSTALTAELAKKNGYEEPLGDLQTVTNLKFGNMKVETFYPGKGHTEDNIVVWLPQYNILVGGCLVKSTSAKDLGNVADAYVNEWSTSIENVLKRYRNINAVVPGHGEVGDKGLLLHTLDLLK
Procedure: as §1, §7, §2, §3

[6] = target: T6, B. licheniformis penP β-lactamase (Bacillus licheniformis, UniProt P00808); experiment: as above; assay type: biochemical; design: key: −: Decline in fluorescence signal (presence of beta-lactam hydrolysis); +: No decline in fluorescence signal (absence of beta-lactam hydrolysis); conditions: antibiotic 1.0×10^−4 M, E166Cf 1.2×10^−7 M
T6 construct: made in house; host or cells: B. subtilis 1A304 (φ105MU331); whole culture used, not purified
T6 sequence (P00808 27-307): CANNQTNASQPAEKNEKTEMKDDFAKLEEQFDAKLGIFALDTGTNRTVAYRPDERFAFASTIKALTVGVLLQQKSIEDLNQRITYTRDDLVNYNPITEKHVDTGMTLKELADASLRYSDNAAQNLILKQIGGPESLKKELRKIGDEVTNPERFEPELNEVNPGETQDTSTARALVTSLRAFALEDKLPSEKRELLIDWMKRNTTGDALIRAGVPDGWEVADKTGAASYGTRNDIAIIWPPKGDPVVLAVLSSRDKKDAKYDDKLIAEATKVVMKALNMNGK
Procedure: as §1, §7, §2, §3

[7] = target: T7, E166C mutant of β-lactamase I (Bacillus cereus, UniProt P00809, E185C); experiment: Spectrophotometric substrate hydrolysis, steady-state kinetics; assay type: biochemical; conditions: 50 mM potassium phosphate buffer pH 7.0, 20° C.
T7 construct: made in house; host or cells: B. subtilis 1A304 (φ105MU331)
T7 sequence (P00809 28-306 E185C): T2 sequence (P00809 28-306 E185C)
Procedure: as §4, §5, §6

[8] = target: T3, E166Cf enzyme; experiment: Time-resolved fluorescence of E166Cf enzyme with β-lactamase inhibitors; assay type: biochemical; conditions: 1.0×10^−4 M inhibitor; E166Cf 1.2×10^−7 M, 50 mM phosphate buffer pH 7.0
Procedure: Time-resolved fluorescence measurements of the E166Cf enzyme in the presence of sulbactam and clavulanate were performed on a Perkin Elmer LS50B spectrofluorometer. The excitation and emission wavelengths were set at 494 and 515 nm respectively. Both excitation and emission slit widths were set at 5 nm. All fluorescence measurements were performed at room temperature.
The fluorescence signals of the labeled enzyme (1.2×10^−7 M) obtained with sulbactam (1.0×10^−4 M) and clavulanate (1.0×10^−3 M) in 50 mM phosphate buffer (pH 7.0) are entirely different (FIGS. 18 and 19).

Compound	fluorescence signal of E166Cf (beta-lactam hydrolysis) [1]	Km [2] [µM]	kcat [2] [s⁻¹]	lowest concentration detected by the labeled enzyme [3]	fluorescence signal of E166Cf (beta-lactam hydrolysis) [4]	fluorescence signal of E166Cf (beta-lactam hydrolysis) [5]	fluorescence signal of E166Cf (beta-lactam hydrolysis) [6]	Km [7] [µM]	kcat [7] [s⁻¹]	time course of E166Cf fluorescence intensity at 515 nm [8]
CC1(C)S[C@@H]2[C@H](NC(=O)[C@H](N)c3ccccc3)C(=O)N2[C@H]1C(=O)O [Ampicillin, ampicillin]	−	262 ± 31	6.2 ± 0.2	10^−6 M	−	−	−	306 ± 30	4.1 ± 0.1	
CC1(C)[C@H](C(=O)O)N2C(=O)C[C@H]2S1(=O)=O [sulbactam]										increases rapidly at the initial stage and then declines slowly

From patent US7323303B2, “Modified β-lactamases and uses thereof” (priority 2003, dated 2008)
